≈ marks a conversion by molar mass, not a printed value. Like-named read-outs stand apart in the source and are kept apart here.
Legend:
[1] = system: Escherichia coli; experiment: MIC, broth microdilution (Example 1); type: cell-based; settings: Escherichia coli, read-out: MIC
Protocol: (§1) Stock solutions of all antibacterial agents were prepared at 80-fold (80×) the final target concentration in the appropriate solvent and the solution was allowed to stand for 60 minutes. All antibacterial agents were in solution under these conditions. The final drug concentrations in the FIC assay plates were set to bracket the MIC value of each agent for each test organism, unless the strain was totally resistant to the test agent.
(§2) The test organisms were originally received from clinical sources, or from the American Type Culture Collection. Upon receipt, the isolates were streaked onto the appropriate growth medium: Chocolate Agar for H. influenzae, Tryptic Soy Agar II (Becton Dickinson, Sparks, Md.) supplemented with 5% defibrinated sheep blood for streptococci, and unsupplemented Tryptic Soy Agar II for all other organisms. Colonies were harvested from these plates and a cell suspension was prepared in Tryptic Soy Broth (Becton Dickinson) containing cryoprotectant. Aliquots were then frozen at −80° C. On the day prior to assay, the frozen seeds of the organisms to be tested in that session were thawed and streaked for isolation onto the appropriate agar medium plates and incubated overnight at 35° C.
(§3) The test medium for H. influenzae was Haemophilus Test Medium. Streptococci were tested in Mueller Hinton II Broth (Becton Dickinson; Lot 6235472) supplemented with 2% lysed horse blood (Cleveland Scientific, Bath, Ohio; Lot H88621). All other organisms were tested in Mueller Hinton II Broth (Becton Dickinson, Lot 6235472). The broth was prepared at 1.05× normal weight/volume to offset the 5% volume of the drugs in the final test plates.
(§4) In order to select the proper test concentrations for each drug combination, minimal inhibitory concentration (MIC) values were first determined using the broth microdilution method previously described (Clinical and Laboratory Standards Institute. Methods for Dilution Antimicrobial Susceptibility Tests for Bacteria That Grow Aerobically; Approved Standard—Seventh Edition. Clinical and Laboratory Standards Institute document M7-A7 [ISBN 1-56238-587-9]. Clinical and Laboratory Standards Institute, 940 West Valley Road, Suite 1400, Wayne, Pa. 19087-1898 USA, 2006).
(§5) The wells of standard 96-well microdilution plates (Falcon 3918) were filled with 150 μL of 100% DMSO using the Multidrop 384. These plates were used to prepare the drug “mother plates” which provided the serial drug dilutions for the drug combination plates. The Biomek 2000 was used to transfer 150 μl of each stock solution (80×) from the wells in Column 1 of a deep well plate to the corresponding wells in Column 1 of the mother plate and to make seven 2-fold serial dilutions. Two mother plates, one for each drug, were combined to form a “checkerboard” pattern by transfer of equal volumes (using a multi-channel pipette) to the drug combination plate. Row H and Column 8 each contained serial dilutions of one of the agents alone for determination of the MIC.
(§6) Plates were stacked 3 high, covered with a lid on the top plate, placed in plastic bags, and incubated at 35° C. for approximately 20 hours. Following incubation, the microplates were removed from the incubator and viewed from the bottom using a ScienceWare plate viewer. Prepared reading sheets were marked for the MIC of drug 1 (row H), the MIC of drug 2 (column 8) and the wells of the growth-no growth interface.

[2] = system: Klebsiella pneumoniae; experiment: MIC, broth microdilution (Example 1); type: cell-based; settings: Klebsiella pneumoniae, read-out: MIC
Protocol: as §1, §2, §3, §4, §5, §6

[3] = system: ESBL-producing Klebsiella pneumoniae; experiment: Susceptibility testing MIC/MBC, broth microdilution (Example 2); type: cell-based; settings: for MIC / MBC: Klebsiella pneumoniae; for MBC: read-out: MBC
[4] = system: ESBL-producing E. coli; experiment: as above; type: cell-based, Escherichia coli; settings: for MBC / MIC: Escherichia coli; for MBC: read-out: MBC; for MIC: read-out: MIC
[5] = system: P. aeruginosa; experiment: as above; type: cell-based, Pseudomonas aeruginosa; settings: for MBC / MIC: Pseudomonas aeruginosa; for MBC: read-out: MBC; for MIC: read-out: MIC
[6] = system: Pseudomonas aeruginosa; experiment: MIC, broth microdilution (Example 1); type: cell-based
Protocol: as §1, §2, §3, §4, §5, §6

[7] = system: Staphylococcus aureus; experiment: MIC, broth microdilution (Example 1); type: cell-based
Protocol: as §1, §2, §3, §4, §5, §6

[8] = system: clinical Enterobacteriacae and P. aeruginosa isolates; experiment: Susceptibility testing (Example 2), summary over species; type: cell-based; settings: Pseudomonas aeruginosa; Enterobacteriacae (30 isolates); read-out: MIC values
[9] = system: AmpC-derepressed Enterobacter cloacae; experiment: microbe, parasite or virus in culture; type: cell-based; settings: for MBC / MIC: Enterobacter cloacae
[10] = K. pneumonia isolate no. 5427, read-out: MIC
[11] = K. pneumonia isolate no. 5436, read-out: MIC
[12] = P. aeruginosa (20) clinical isolates
[13] = K. pneumonia (10) clinical isolates
[14] = E. cloacae (10) clinical isolates

C[C@H]1[C@H](NC(=O)/C(=N\OC(C)(C)C(=O)O)c2csc(N)n2)C(=O)N1S(=O)(=O)O [Aztreonam]
MIC ([1]; E. coli 1587): 0.25 mg/L | MIC ([1]; E. coli 2273 (ESBL)): 16 mg/L | MIC ([2]; K. pneumoniae 1340): 0.12 mg/L | MIC ([2]; K. pneumoniae 1461): 0.25 mg/L | MIC ([3]; 1 K. pneumoniae isolate, read-out: MIC): 0.5 mg/L (≈ 1.15 µM) | MBC ([3]; K. pneumonia isolate no. 5427): 1 mg/L (≈ 2.3 µM) | MIC [3, 10]: 0.5 mg/L (≈ 1.15 µM) | MBC ([3]; K. pneumonia isolate no. 5436): 64 mg/L (≈ 147 µM) | MIC [3, 11]: 64 mg/L (≈ 147 µM) | MIC ([3]; all K. pneumoniae except 1 isolate, read-out: MIC values): ≥ 8 mg/L | MBC ([4]; E. coli isolate no. 5401): 0.25 mg/L (≈ 0.574 µM) | MIC ([4]; E. coli isolate no. 5401): 0.25 mg/L (≈ 0.574 µM) | MBC ([4]; E. coli isolate no. 5411): 32 mg/L (≈ 73.5 µM) | MIC ([4]; E. coli isolate no. 5411): 8 mg/L (≈ 18.4 µM)

C[C@@H](O)[C@H]1C(=O)N2C(C(=O)O)=C(S[C@@H]3CN[C@H](C(=O)N(C)C)C3)[C@H](C)[C@H]12 [Meropenem]
MBC range [5, 12]: 0.125 to 32 mg/L | MIC range [5, 12]: 0.125 to 16 mg/L | MBC ([5]; P. aeruginosa isolate no. 796): 2 mg/L (≈ 5.22 µM) | MIC ([5]; P. aeruginosa isolate no. 796): 1 mg/L (≈ 2.61 µM) | MBC ([5]; P. aeruginosa isolate no. 956): 2 mg/L (≈ 5.22 µM) | MIC ([5]; P. aeruginosa isolate no. 956): 0.25 mg/L (≈ 0.652 µM) | MBC ([5]; P. aeruginosa isolate no. 1019): 2 mg/L (≈ 5.22 µM) | MIC ([5]; P. aeruginosa isolate no. 1019): 1 mg/L (≈ 2.61 µM) | MBC ([5]; P. aeruginosa isolate no. 1037): 1 mg/L (≈ 2.61 µM) | MIC ([5]; P. aeruginosa isolate no. 1037): 0.5 mg/L (≈ 1.3 µM) | MIC ([6]; P. aeruginosa 2555): 4 mg/L | MIC ([6]; P. aeruginosa 2559): 0.12 mg/L | MIC ([7]; S. aureus 2296 (CA-MRSA)): >16^a^ μg/mL | MIC ([7]; Staphylococcus aureus, MRSA, S. aureus 2202 (CA-MRSA), read-out: MIC): 4 mg/L | MIC ([7]; Staphylococcus aureus, MRSA, S. aureus 2296 (CA-MRSA), read-out: MIC): > 16 mg/L | MIC ([2]; K. pneumoniae 1468 (ESBL)): 0.06 mg/L | MBC range [3, 13]: 0.06 to 0.125 mg/L | MIC range [3, 13]: 0.03 to 0.06 mg/L | MBC ([3]; K. pneumonia isolate no. 5427): 0.06 mg/L (≈ 0.156 µM) | MIC [3, 10]: 0.06 mg/L (≈ 0.156 µM) | MBC ([3]; K. pneumonia isolate no. 5436): 0.06 mg/L (≈ 0.156 µM) | MIC [3, 11]: 0.06 mg/L (≈ 0.156 µM) | MIC [8]: ≤ 4 mg/L | MBC range ([4]; E. coli (10) clinical isolates): 0.06 to 0.125 mg/L | MIC range ([4]; E. coli (10) clinical isolates): 0.03 to 0.06 mg/L | MBC ([4]; E. coli isolate no. 5401): 0.06 mg/L (≈ 0.156 µM) | MIC ([4]; E. coli isolate no. 5401): 0.06 mg/L (≈ 0.156 µM) | MBC ([4]; E. coli isolate no. 5411): 0.06 mg/L (≈ 0.156 µM) | MIC ([4]; E. coli isolate no. 5411): 0.06 mg/L (≈ 0.156 µM) | MBC range [9, 14]: 0.03 to 0.5 mg/L | MIC range [9, 14]: 0.03 to 0.25 mg/L | MBC ([9]; E. cloacae isolate no. 4073): 0.5 mg/L (≈ 1.3 µM) | MIC ([9]; E. cloacae isolate no. 4073): 0.25 mg/L (≈ 0.652 µM) | MBC ([9]; E. cloacae isolate no. 5420): 0.125 mg/L (≈ 0.326 µM) | MIC ([9]; E. cloacae isolate no. 5420): 0.125 mg/L (≈ 0.326 µM)

Source: US20100197650A1, “COMPOSITIONS AND METHODS OF TREATMENT COMPRISING CEFTAROLINE” (FOREST LABORATORIES HOLDINGS LTD., priority 2008, published 2010)
